Measured values from patent publication US11225492B2, “Heterocycles useful as anti-cancer agents” (Hangzhou Innogate Pharma Co., Ltd., priority 2015, dated 2022).
pIC50: −log10 of the molar value. Where two headings read alike, the source gives them in different places.

How the values were obtained:
Assay type in all cases: biochemical
[1] = target: CDK6/cycD3 (Homo sapiens (Human), UniProt Q00534); experiment: CDK6/cycD3 kinase Mobility Shift Assay; conditions: CDK6/cycD3 15 nM, ATP Km 800 μM, 60 min, 28° C.
Chain of CDK6/cycD3 (Q00534 whole entry, species assumed): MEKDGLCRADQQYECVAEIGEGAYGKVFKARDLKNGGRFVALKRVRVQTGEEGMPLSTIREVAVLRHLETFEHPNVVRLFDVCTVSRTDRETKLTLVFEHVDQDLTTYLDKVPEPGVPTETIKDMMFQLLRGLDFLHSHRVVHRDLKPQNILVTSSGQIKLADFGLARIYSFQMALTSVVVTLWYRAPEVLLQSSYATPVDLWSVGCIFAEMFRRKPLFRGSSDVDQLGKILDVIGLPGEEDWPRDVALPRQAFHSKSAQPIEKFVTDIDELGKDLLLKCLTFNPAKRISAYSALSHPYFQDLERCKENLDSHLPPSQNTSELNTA
Chain of CDK6/cycD3 (P30281 whole entry partner, species assumed): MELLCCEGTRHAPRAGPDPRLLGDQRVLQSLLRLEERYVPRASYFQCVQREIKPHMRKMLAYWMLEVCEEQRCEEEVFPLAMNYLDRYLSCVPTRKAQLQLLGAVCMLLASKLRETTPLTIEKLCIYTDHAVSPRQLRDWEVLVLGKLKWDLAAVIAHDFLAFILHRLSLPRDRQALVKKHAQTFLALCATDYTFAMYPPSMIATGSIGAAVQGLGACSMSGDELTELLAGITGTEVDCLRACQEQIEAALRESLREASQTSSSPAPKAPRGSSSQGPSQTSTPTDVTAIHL
Description: (§1) 1. CDK2, CDK4 and CDK6 Kinase Assays:
(§2) CDK2/CycA2 and CDK6/cycD3 were assayed under buffer conditions in the presence of 50 mM HEPES (pH 7.5), 10 mM MgCl2, 0.0015% Brij-35, and 2 mM dithiothreitol, CDK4/CycD3 with buffer condition of 20 mM HEPES (pH 7.5), 10 mM MgCl2, 0.01% Triton X-100, and 2 mM dithiothreitol. Prepare compounds to 50× of the final desired highest inhibitor concentration by 100% DMSO and serial dilution in 3-fold for total of 10 concentrations. […] After assay for 60 min, 180 min, 60 min respectively at 28° C., reactions were terminated with stop solution (50 mM EDTA, 0.015% Brij-35, 0.2% Coating Reagent #3 and 100 mM HEPES (pH 7.5)). Collect conversion on Caliper EZ Reader. IC50 values were calculated by fitting the dose-response curves with Xlfit excel add-in version 4.3.1.

[2] = target: CDK4/CycD3 (Homo sapiens (Human), UniProt P11802); experiment: CDK4/CycD3 kinase Mobility Shift Assay
Chain of CDK4/CycD3 (P11802 whole entry, species assumed): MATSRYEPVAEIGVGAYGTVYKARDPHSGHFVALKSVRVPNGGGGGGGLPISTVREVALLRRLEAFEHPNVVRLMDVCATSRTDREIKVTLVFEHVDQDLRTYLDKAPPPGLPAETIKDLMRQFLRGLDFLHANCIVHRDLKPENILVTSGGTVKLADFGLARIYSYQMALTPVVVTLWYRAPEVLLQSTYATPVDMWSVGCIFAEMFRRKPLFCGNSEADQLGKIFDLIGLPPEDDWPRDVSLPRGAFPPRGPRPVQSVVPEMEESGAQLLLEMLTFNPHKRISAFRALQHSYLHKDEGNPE
Chain of CDK4/CycD3 (P30281 whole entry partner, species assumed): as the sequence (P30281 whole entry partner, species assumed) above
Description: as §1, §2

[3] = target: CDK2/CycA2 (Homo sapiens (Human), UniProt P24941); experiment: CDK2/CycA2 kinase Mobility Shift Assay; conditions: CDK2/CycA2 12 nM, ATP Km 39 μM, 60 min, 28° C.
Description: as §1, §2

[4] = target: HDAC-6 (Homo sapiens (Human), UniProt Q9UBN7); experiment: HDAC-6 fluorogenic deacetylase assay; conditions: recombinant, full-length protein, Ac-peptide-AMC substrate; read-out: HDAC6 (IC50)
Chain of HDAC-6 (Q9UBN7 whole entry): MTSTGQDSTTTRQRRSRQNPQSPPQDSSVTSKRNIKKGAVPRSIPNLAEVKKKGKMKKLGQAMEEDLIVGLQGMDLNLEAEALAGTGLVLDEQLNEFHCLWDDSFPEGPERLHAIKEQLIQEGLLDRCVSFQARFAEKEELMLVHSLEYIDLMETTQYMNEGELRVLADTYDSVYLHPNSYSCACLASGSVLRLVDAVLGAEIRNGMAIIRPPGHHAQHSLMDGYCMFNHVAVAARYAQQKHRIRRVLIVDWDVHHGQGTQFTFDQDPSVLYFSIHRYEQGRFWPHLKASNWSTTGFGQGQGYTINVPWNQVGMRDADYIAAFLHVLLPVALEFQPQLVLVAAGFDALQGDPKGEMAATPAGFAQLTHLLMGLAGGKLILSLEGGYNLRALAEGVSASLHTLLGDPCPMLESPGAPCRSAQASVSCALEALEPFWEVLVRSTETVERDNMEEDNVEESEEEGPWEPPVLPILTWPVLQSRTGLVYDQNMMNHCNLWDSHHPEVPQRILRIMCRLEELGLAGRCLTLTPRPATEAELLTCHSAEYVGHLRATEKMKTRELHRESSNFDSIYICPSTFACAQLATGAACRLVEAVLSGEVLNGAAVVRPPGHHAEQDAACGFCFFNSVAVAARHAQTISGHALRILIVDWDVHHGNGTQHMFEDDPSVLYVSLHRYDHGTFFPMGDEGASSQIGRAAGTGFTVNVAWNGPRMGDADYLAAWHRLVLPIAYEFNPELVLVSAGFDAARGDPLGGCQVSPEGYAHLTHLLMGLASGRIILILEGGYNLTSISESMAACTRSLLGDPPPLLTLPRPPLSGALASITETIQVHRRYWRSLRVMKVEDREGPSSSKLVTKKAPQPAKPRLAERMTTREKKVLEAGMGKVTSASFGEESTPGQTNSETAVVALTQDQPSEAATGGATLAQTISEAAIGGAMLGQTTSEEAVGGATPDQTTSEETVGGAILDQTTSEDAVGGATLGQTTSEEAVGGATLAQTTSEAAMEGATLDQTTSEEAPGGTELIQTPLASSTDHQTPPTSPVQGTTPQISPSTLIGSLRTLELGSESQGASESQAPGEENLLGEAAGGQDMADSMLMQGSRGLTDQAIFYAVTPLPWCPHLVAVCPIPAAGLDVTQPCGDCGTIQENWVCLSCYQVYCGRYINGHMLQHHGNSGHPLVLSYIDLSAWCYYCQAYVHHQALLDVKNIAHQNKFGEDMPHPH
Description: (§3) 2. HDAC-1, HDAC-2 and HDAC-6 Assays:
(§4) The inhibitory effect of compounds on HDAC-1, HDAC-2 and HDAC-6 function was determined in vitro using an optimized homogenous assay performed in 384-well plate format. In this assay, recombinant, full-length HDAC-1, HDAC-2 or HDAC-6 protein (BPS Biosciences) was incubated with Ac-peptide-AMC with concentration in Km plot. Reactions were performed in Tris-based assay buffer and followed for fluorogenic release of 7-amino-4-methylcoumarin from substrate upon deacetylase and trypsin enzymatic activity. Fluorescence measurements were obtained using a multilabel plate reader (Synergy MX with excitation at 355 nm and emission at 460 nm). Data were analyzed on a plate-by-plate basis for the linear range of fluorescence over time. Fit the data in GraphPad Prism V5.0 software to obtain IC50 values using equation (Y=Bottom+(Top−Bottom)/(1+10^((Log IC50−X)*Hill Slope), Y is % inhibition and X is compound concentration).

[5] = target: HDAC-1 (Homo sapiens (Human), UniProt Q13547); experiment: HDAC-1 fluorogenic deacetylase assay; conditions: recombinant, full-length protein, Ac-peptide-AMC substrate; read-out: HDAC1 (IC50)
Chain of HDAC-1 (Q13547 whole entry): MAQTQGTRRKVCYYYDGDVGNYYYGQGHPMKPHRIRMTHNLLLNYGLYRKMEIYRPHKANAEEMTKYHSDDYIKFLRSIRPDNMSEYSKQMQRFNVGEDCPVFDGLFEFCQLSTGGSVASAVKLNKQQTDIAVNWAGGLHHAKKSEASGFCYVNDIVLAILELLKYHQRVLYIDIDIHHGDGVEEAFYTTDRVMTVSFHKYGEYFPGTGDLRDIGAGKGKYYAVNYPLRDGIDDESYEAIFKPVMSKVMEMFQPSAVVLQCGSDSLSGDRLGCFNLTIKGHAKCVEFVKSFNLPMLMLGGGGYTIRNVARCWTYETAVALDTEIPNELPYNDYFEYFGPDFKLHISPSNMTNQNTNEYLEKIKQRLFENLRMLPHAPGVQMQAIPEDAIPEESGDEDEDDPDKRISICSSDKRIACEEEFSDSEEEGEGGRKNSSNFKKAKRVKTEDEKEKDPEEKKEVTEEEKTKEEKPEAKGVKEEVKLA
Description: as §3, §4

[6] = CDK4/CycD3 10 nM, ATP Km 221 μM, 180 min, 28° C.

pIC50 [1]	pIC50 [2, 6]	pIC50 [3]	pIC50 [2]	pIC50 [4]	pIC50 [5]	Compound
> 7.00	> 7.60	> 6.00	–	–	–	CC(=O)c1c(C)c2cnc(Nc3ccc(N4CC5CNCC(C4)C5(F)F)cn3)nc2n(C2CCCC2)c1=O (single isomer, unassigned) [Compound 4-1, 6-acetyl-8-cyclopentyl-2-(5-(9,9-difluoro-3,7-diazabicyclo[3.3.1]nonan-3-yl)pyridin-2-ylamino)-5-methylpyrido[2,3-d]pyrimidin-7(8H)-one]
> 7.60	> 8.00	< 5.30	–	–	–	CC(=O)c1c(C)c2cnc(Nc3ccc(N4CC5CNCC(C5)C4)cn3)nc2n(C2CCCC2)c1=O [Compound 1, 2-(5-(3,7-diazabicyclo[3.3.1]nonan-3-yl)pyridin-2-ylamino)-6-acetyl-8-cyclopentyl-5-methylpyrido[2,3-d]pyrimidin-7(8H)-one]
> 7.00	> 7.60	< 5.30	–	–	–	CC(=O)c1c(C)c2cnc(Nc3ccc(N4CC5CNCC(C4)O5)cn3)nc2n(C2CCCC2)c1=O [Compound 2, 2-(5-(9-oxa-3,7-diazabicyclo[3.3.1]nonan-3-yl)pyridin-2-ylamino)-6-acetyl-8-cyclopentyl-5-methylpyrido[2,3-d]pyrimidin-7(8H)-one]
> 7.60	> 8.00	< 5.30	–	–	–	CC(=O)c1c(C)c2cnc(Nc3ccc(N4CCC5(CC4)CNC5)cn3)nc2n(C2CCCC2)c1=O [Compound 3, 2-(5-(2,7-Diazaspiro[3.5]nonan-7-yl)pyridin-2-ylamino)-6-acetyl-8-cyclopentyl-5-methylpyrido[2,3-d]pyrimidin-7(8H)-one]
> 7.00	> 7.30	–	–	–	–	CC(=O)c1c(C)c2cnc(Nc3ccc(N4CC5CNCC(C4)C5(F)F)cn3)nc2n(C2CCCC2)c1=O [Compound 4-2, 6-acetyl-8-cyclopentyl-2-(5-(9,9-difluoro-3,7-diazabicyclo[3.3.1]nonan-3-yl)pyridin-2-ylamino)-5-methylpyrido[2,3-d]pyrimidin-7(8H)-one]
> 7.60	> 8.00	< 5.30	–	–	–	CC(=O)c1c(C)c2cnc(Nc3ccc(N4CCCC5(CCNCC5)C4)cn3)nc2n(C2CCCC2)c1=O [Compound 6, 2-(5-(2,9-diazaspiro[5.5]undecan-2-yl)pyridin-2-ylamino)-6-acetyl-8-cyclopentyl-5-methylpyrido[2,3-d]pyrimidin-7(8H)-one]
> 7.00	–	< 6.00	> 8.00	–	–	CC(=O)c1c(C)c2cnc(Nc3ccc4c(n3)CCNC4)nc2n(C2CCCC2)c1=O [Compound 8, 6-acetyl-8-cyclopentyl-5-methyl-2-(5,6,7,8-tetrahydro-1,6-naphthyridin-2-ylamino)pyrido[2,3-d]pyrimidin-7(8H)-one]
> 7.60	> 8.00	< 5.00	–	> 8.00	> 7.30	CC(=O)c1c(C)c2cnc(Nc3ccc(N4CCN(C(=O)CCCCCCC(=O)NO)CC4)cn3)nc2n(C2CCCC2)c1=O [Compound 12, 8-(4-(6-(6-acetyl-8-cyclopentyl-5-methyl-7-oxo-7,8-dihydropyrido[2,3-d]pyrimidin-2-ylamino)pyridin-3-yl)piperazin-1-yl)-N-hydroxy-8-oxooctanamide]
> 7.30	> 7.60	< 6.00	–	–	–	CC(=O)c1c(C)c2cnc(Nc3ccc(N4CCN(C(=O)CCCC(=O)NO)CC4)cn3)nc2n(C2CCCC2)c1=O [Compound 13, 5-(4-(6-(6-acetyl-8-cyclopentyl-5-methyl-7-oxo-7,8-dihydropyrido[2,3-d]pyrimidin-2-ylamino)pyridin-3-yl)piperazin-1-yl)-N-hydroxy-5-oxopentanamide]
> 8.00	> 8.00	–	–	> 7.30	> 6.30	CC(=O)c1c(C)c2cnc(Nc3ccc(N4CCN(CCCCCCC(=O)NO)CC4)cn3)nc2n(C2CCCC2)c1=O [Compound 14, 7-(4-(6-(6-acetyl-8-cyclopentyl-5-methyl-7-oxo-7,8-dihydropyrido[2,3-d]pyrimidin-2-ylamino)pyridin-3-yl)piperazin-1-yl)-N-hydroxyheptanamide]
> 7.30	> 8.00	< 6.00	–	> 8.00	> 6.30	CC(=O)c1c(C)c2cnc(Nc3ccc(N4CCN(Cc5ccc(C(=O)NO)cc5)CC4)cn3)nc2n(C2CCCC2)c1=O [Compound 16, 4-((4-(6-((6-acetyl-8-cyclopentyl-5-methyl-7-oxo-7,8-dihydropyrido[2,3-d]pyrimidin-2-yl)amino)pyridin-3-yl)piperazin-1-yl)methyl)-N-hydroxybenzamide]
> 6.30	> 7.30	< 6.00	–	> 7.30	> 6.30	CC(=O)c1c(C)c2cnc(Nc3ccc(C(=O)NO)cn3)nc2n(C2CCCC2)c1=O [Compound 17, 6-((6-acetyl-8-cyclopentyl-5-methyl-7-oxo-7,8-dihydropyrido[2,3-d]pyrimidin-2-yl)amino)-N-hydroxynicotinamide]
> 6.00	> 7.30	< 6.00	–	> 8.00	> 7.30	CC(=O)c1c(C)c2cnc(Nc3ccc(C(=O)NCCCCCCC(=O)NO)cn3)nc2n(C2CCCC2)c1=O [Compound 18, 6-((6-acetyl-8-cyclopentyl-5-methyl-7-oxo-7,8-dihydropyrido[2,3-d]pyrimidin-2-yl)amino)-N-(7-(hydroxyamino)-7-oxoheptyl)nicotinamide]

Compound	pIC50 [1]	pIC50 [2, 6]	pIC50 [3]	pIC50 [2]	pIC50 [4]	pIC50 [5]
CC(=O)c1c(C)c2cnc(Nc3ccc(N4CCN(CCCCCCCC(=O)NO)CC4)cn3)nc2n(C2CCCC2)c1=O [Compound 15, 8-(4-(6-((6-acetyl-8-cyclopentyl-5-methyl-7-oxo-7,8-dihydropyrido[2,3-d]pyrimidin-2-yl)amino)pyridin-3-yl)piperazin-1-yl)-N-hydroxyoctanamide]	> 7.60	> 8.00	< 6.00	–	> 7.30	> 6.30
